The test system of assay [1] is cigarette smoke-exposed guinea pigs. Put plainly: Specific airway resistance (sRaw) in cigarette smoke-exposed guinea pigs. To be noted: for Specific airway resistance (sRaw) Mean ± S.D.: 30 min from 1 hr before smoke exposure, Days 1 to 25, measured Day 26, n=7, control 2.154 ± 0.365, sham 1.131 ± 0.149. In kind it is in vivo, guinea pig. The text has this:
(§1) Guinea pigs were exposed to cigarette smoke using a smoking system (INH06-CIG01A, M.I.P.S. Inc.). Each animal was placed in an exposure holder, and the holder was fixed in an exposure chamber. Cigarette smoke of 30 cigarettes per day (Peace®, Japan Tobacco Inc.) was drawn from a smoke generator into the exposure chamber, 5 days per week, for 25 days (Days 1 to 25). In a sham exposure group, the atmospheric air, instead of cigarette smoke, was drawn into the exposure chamber.
(§2) Aqueous solution of Compound A (13,14-dihydro-15-keto-16,16-difluoro-18(S)-methyl-PGE1) was vaporized using a pressurized nebulizer (LC Plus Nebulizer, Pari GmbH) and inhaled by the animals in a chamber of an inhalation system (SIS-A, Sibata Scientific Technology Ltd.) for 30 minutes from 1 hr before the cigarette smoke exposure.
Specific airway resistance (sRaw) of conscious animals was measured by a double flow plethysmo-graph technique with a respiratory function measurement system (Pulmos-1, M.I.P.S Inc.) on Day 26.

The test system is the same in assay [2]. Put plainly: Pulmonary function (RV, FEV100) in cigarette smoke-exposed guinea pigs. In kind it is in vivo, guinea pig.
From the text: as §1, §2
After the sRaw measurements, animals were anesthetized with ketamine (60 mg/kg) and xylazine (8 mg/kg), and the trachea was cannulated. Pulmonary function was measured using a pulmonary function measurement system (Biosystem Manoeuvers, Buxco Electronics, Inc.). The parameters of measurement consisted of residual volume (RV) and forced expiratory volume at 100 msec (FEV100).

Assay [3] shares this test system. Kind of assay: Macrophage (monocyte) count in bronchoalveolar lavage fluid of cigarette smoke-exposed guinea pigs. In kind it is in vivo, guinea pig.
From the text: as §1, §2
After the measurement of pulmonary function, the animals were sacrificed by exsanguination under anesthesia and the thorax was opened. Five milliliters of saline were instilled into the lungs through a tracheal cannula, and the lavage fluid was recovered by gentle aspiration. This procedure was repeated and the recovered lavage fluid was combined (10 mL in total, bronchoalveolar lavage fluid, BALF). The number of macrophages (monocyte) in the BALF was counted.

Assay [4] has as its system Human lung alveolar type II cells (A549). Kind of assay: Cytochrome c translocation after cigarette smoke extract (CSE) treatment, cytochrome c ELISA. The format is cell-based. As to the method:
Smoke from 8 cigarettes was drawn slowly through 100 ml of serum free culture medium and the resulting suspension was filtered through 0.20 μm filter. The solution was considered as 100% cigarette smoke extract (CSE). Human lung alveolar type II cells (A549) were grown in 96 well plates for 48 hrs at a final concentration of 1.5×10^5 cells per well. The cells were then treated separately with either 100 nM Compound A or 1%, 2.5% and 5% CSE. In other sets, 100 nM Compound A was added along with 1%, 2.5% or 5% CSE. All incubations were done at 37° C. for 24 hrs. After 24 hr treatment, the cells were washed with 0-4° C. PBS three times. Measurement of cytochrome c that was translocated into the cytosol, a marker of cellular injury, was performed according to the instructions provided with a kit for cytochrome c ELISA assay.
Background: ELISA stands for enzyme-linked immunosorbent assay.

[5] abbreviates: compared with the control group.

Data on one compound can be found in US20070203228A1, “Method for treating chronic obstructive pulmonary disease” (SUCAMPO AG, priority 2006, published 2007).

Entries after “also recorded” stand apart in the source; their conditions may differ. Marks after values point to notes of the source that are not given here.

Consider `CC[C@H](C)CC(F)(F)C(=O)CC[C@H]1[C@H](O)CC(=O)[C@@H]1CCCCCCC(=O)O` [Compound A, 13,14-dihydro-15-keto-16,16-difluoro-18(S)-methyl-PGE1], for which the “Effect on increase in sRaw induced by cigarette smoke exposure” value in assay [1] (setting [5]) is listed as “significantly inhibited the increase in sRaw”. Moreover, the “Specific airway resistance (sRaw) Mean ± S.D.” value is 1.417 ± 0.226 cmH2O · sec in assay [1] (inhaled aqueous solution 1 μg/mL) and 1.383 ± 0.241 cmH2O · sec in assay [1] (inhaled aqueous solution 10 μg/mL). Besides, in assay [2] (setting [5]), the “Effect on decrease in FEV100 induced by cigarette smoke exposure” value is “significantly inhibited these changes”. For the same compound, the “Effect on increase in residual volume (RV) induced by cigarette smoke exposure” value in assay [2] (setting [5]) was “significantly inhibited these changes”. For the same compound, the “RV (residual volume) Mean ± S.D.” value in assay [2] (inhaled aqueous solution 1 μg/mL, n=7, control 5.44 ± 1.43, sham 2.75 ± 1.45) is reported as 3.45 ± 1.07 mL. Moreover, in assay [2] (inhaled aqueous solution 1 μg/mL, n=7, control 5.75 ± 3.29, sham 9.87 ± 1.17), the “FEV100 (forced expiratory volume at 100 msec) Mean ± S.D.” value was determined as 10.38 ± 1.08 mL. Moreover, the “Effect on increase in number of macrophages (monocyte) in BALF induced by cigarette smoke exposure” value in assay [3] (setting [5]) is “significantly inhibited the increase in number of macrophages (monocyte)”. The “Monocyte/Macrophage count in bronchoalveolar lavage fluid Mean ± S.D.” value in assay [3] (inhaled aqueous solution 1 μg/mL, n=7, control 14.42 ± 3.00, sham 4.52 ± 1.73) is 10.35 ± 2.53* 10^2 cells/μL. Further, the “Cytosolic cytochrome c, compound alone” value in assay [4] (100 nM Compound A alone, no CSE, 24 hours) is “Neither 0.1% DMSO (B) (vehicle for Compound A) nor Compound A (C) alone significantly affected cytosolic cytochrome c”. The “Cytochrome c translocation induced by CSE” value in assay [4] (100 nM Compound A with 1%, 2.5% and 5% CSE, 24 hrs, compared to DMSO control (P<0.05, P<002 and P<0.005)) is reported as “protected against the cytochrome c translocation induced by CSE; also recorded: significantly decreased cytochrome c translocation”.
